Assay results published in ChEMBL document CHEMBL1201862, “PubChem BioAssay data set” (2004).
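Five compound concentrations were applied to cells in 96-well plates for 48 hours; endpoints were derived by simple linear interpolation of the resulting dose-response curve. GI50 is the concentration that inhibits growth by half.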 Active and inactive are the calls of the source. No stated cut-off is given here; in the data, active = GI50 up to about 1.1 µM and inactive = higher.

Columns and labels:
Experiment in all cases: inhibition of tumour cell growth, NCI panel, 48 h
A549 = system: A549
CCRF-CEM = system: CCRF-CEM
COLO 205 = system: COLO 205
EKVX = system: EKVX
HCC 2998 = system: HCC 2998
HOP-62 = system: HOP-62
K562 = system: K562
KM12 = system: KM12
LOX IMVI = system: LOX IMVI
OVCAR-3 = system: OVCAR-3
OVCAR-4 = system: OVCAR-4
RPMI-8226 = system: RPMI-8226
SF-295 = system: SF-295
SF-539 = system: SF-539
SW-620 = system: SW-620
UACC-257 = system: UACC-257
UACC-62 = system: UACC-62
A498 = system: A498

Measured: GI50

CC(=O)NNc1nc(C)c(C(=O)NNC(=O)C(=O)Nc2ccc(Cl)cc2)s1
inactive: A549 > 100 µM | CCRF-CEM 25.3 µM | COLO 205 > 100 µM | EKVX > 100 µM | HCC 2998 > 100 µM | HOP-62 > 100 µM | K562 46.2 µM | KM12 > 100 µM | LOX IMVI 53 µM | OVCAR-3 28.9 µM | OVCAR-4 47 µM | RPMI-8226 > 100 µM | SF-295 > 100 µM | SF-539 > 100 µM | SW-620 54.6 µM | UACC-257 > 100 µM | UACC-62 > 100 µM

CN(NC1OC(CO)C(O)C(O)C1O)c1ccccc1 (configuration not stated)
inactive: A549 > 100 µM | CCRF-CEM > 100 µM | COLO 205 > 100 µM | HCC 2998 43.4 µM | HOP-62 > 100 µM | K562 > 100 µM | KM12 > 100 µM | LOX IMVI > 100 µM | OVCAR-3 > 100 µM | OVCAR-4 > 100 µM | RPMI-8226 > 100 µM | SF-295 > 100 µM | SW-620 > 100 µM | UACC-257 > 100 µM | UACC-62 > 100 µM

COc1cccc(-c2nccc3c(OCc4ccccc4)c(OC)c(OC)cc23)c1
inactive: A498 > 100 µM | A549 > 100 µM | CCRF-CEM 5.68 µM | COLO 205 > 100 µM | EKVX > 100 µM | HCC 2998 58.3 µM | HOP-62 > 100 µM | K562 4.91 µM | KM12 > 100 µM | LOX IMVI > 100 µM | OVCAR-3 > 100 µM | RPMI-8226 7.08 µM | SF-295 > 100 µM | SF-539 > 100 µM | SW-620 > 100 µM | UACC-257 > 100 µM | UACC-62 > 100 µM

O=C(/C=C/c1ccccc1O)c1cccs1
inactive: A498 11.9 µM | A549 > 100 µM | CCRF-CEM > 100 µM | COLO 205 > 100 µM | EKVX > 100 µM | HCC 2998 > 100 µM | HOP-62 > 100 µM | K562 > 100 µM | KM12 > 100 µM | LOX IMVI > 100 µM | OVCAR-3 > 100 µM | OVCAR-4 > 100 µM | SF-295 > 100 µM | SF-539 > 100 µM | SW-620 > 100 µM | UACC-257 > 100 µM | UACC-62 > 100 µM

Cc1nc(N)nn1C1OCC(O)C(O)C1O (configuration not stated)
inactive: A498 > 100 µM | A549 > 100 µM | CCRF-CEM > 100 µM | COLO 205 > 100 µM | EKVX > 100 µM | HCC 2998 > 100 µM | HOP-62 > 100 µM | K562 > 100 µM | KM12 > 100 µM | OVCAR-3 > 100 µM | OVCAR-4 > 100 µM | RPMI-8226 > 100 µM | SF-295 > 100 µM | SF-539 > 100 µM | SW-620 > 100 µM | UACC-257 > 100 µM | UACC-62 > 100 µM

O=C1c2cc3c(cc2[C@@H]2C(O)[C@H]4O[C@H]4C4CCN1C42)OCO3 (some centres not stated)
inactive: A549 > 37.5 µM | CCRF-CEM > 37.5 µM | COLO 205 > 37.5 µM | EKVX > 37.5 µM | HCC 2998 > 37.5 µM | HOP-62 > 37.5 µM | K562 > 37.5 µM | KM12 > 37.5 µM | LOX IMVI > 37.5 µM | OVCAR-3 > 37.5 µM | OVCAR-4 > 37.5 µM | RPMI-8226 > 37.5 µM | SF-295 > 37.5 µM | SF-539 > 37.5 µM | SW-620 > 37.5 µM | UACC-62 > 37.5 µM

O=C1c2ccccc2C(=O)N1CCn1nc(-c2ccccc2)cc(-c2ccccc2)c1=O
inactive: A549 61.5 µM | CCRF-CEM 23.2 µM | COLO 205 63.2 µM | EKVX 51.5 µM | HCC 2998 67.8 µM | HOP-62 > 100 µM | K562 18.2 µM | KM12 > 100 µM | OVCAR-3 27.2 µM | OVCAR-4 42.1 µM | RPMI-8226 5.41 µM | SF-295 56 µM | SF-539 > 100 µM | SW-620 > 100 µM | UACC-257 > 100 µM | UACC-62 51.2 µM

COCCOCCOCCOc1cccc2c1C(=O)c1cccc(OCCOCCOCCOC)c1C2=O
inactive: A498 > 100 µM | A549 > 100 µM | CCRF-CEM 40.1 µM | COLO 205 > 100 µM | EKVX > 100 µM | HCC 2998 > 100 µM | HOP-62 > 100 µM | K562 37.8 µM | LOX IMVI 70.1 µM | OVCAR-3 92.5 µM | OVCAR-4 > 100 µM | RPMI-8226 65.3 µM | SF-295 > 100 µM | SF-539 > 100 µM | SW-620 > 100 µM | UACC-257 > 100 µM | UACC-62 > 100 µM
